Patent publication US20060241082A1, “Modulating vesicular monoamine transporter trafficking and function: a novel approach for the treatment of parkinson's disease” (priority 2002, published 2006)
Values joined by “and” are separate entries in the source; they are usually repeats but may differ in a detail not shown here. Equal entries are not always repeated.

Assays:
DAT [1] = molecular target: T1, DAT (Rattus norvegicus, UniProt P23977); assay: [3H]WIN35428 binding in striatal synaptosomes prepared from treated rats; format: in vivo; details: MDMA 4 x 10 mg/kg s.c.
T1 construct: from tissue; host or cells: striatum of male Sprague-Dawley rats (synaptosomes, P2)
Experimental: (§1) Uptake of [^3H]DA was determined in striatal synaptosomes prepared according to the method described by Kokoshka et al. (1998). Briefly, fresh striatal tissue was homogenized in cold 0.32 M sucrose and centrifuged (800×g for 12 min; 4° C.). The supernatant (S1) was then centrifuged (22,000×g for 15 min; 4° C.), and the resulting pellet (P2) was resuspended in ice-cold modified Kreb's buffer (in mM: 126 NaCl, 4.8 KCl, 1.3 CaCl2, 16 sodium phosphate, 1.4 MgSO4, 11 dextrose, 1-ascorbic acid, pH 7.4). Assays were conducted in Kreb's buffer. Each assay tube contained synaptosomal tissue (i.e., resuspended P2 obtained from 1.5 mg of original wet weight striatal tissue) and 1 μM pargyline. Nonspecific values were determined in the presence of 100 μM cocaine. After preincubation of assay tubes for 10 min at 37° C., assays were initiated by the addition of [^3H]DA (0.5 nM final concentration). Samples were incubated at 37° C. for 3 min. Samples were then filtered through Whatman GF/B filters (Brandel, Gaithersburg, Md.) soaked previously in 0.05% polyethylenimine. Filters were washed rapidly 3 times with 3 ml of ice-cold 0.32 M sucrose using a Brandel filtering manifold. […] Remaining resuspended P2 samples were assayed for protein concentrations according to the method of Lowry et al. (1951). In MDMA preincubation experiments, samples were preincubated with 10 μM MDMA for 30 min at 37° C. After 30 min, resuspended P2 fractions were “washed” by centrifugation (22,000×g for 15 min; 4° C.). The resulting pellet (P3) was then resuspeded in ice-cold Kreb's buffer, and once again centrifuged (22,000×g for 15 min; 4° C.) to obtain a P4 pellet that was subsequently resuspended and assayed. [^3H]WIN35428 binding (0.5 nM final concentration) was conducted in phosphate-buffered 0.32 M sucrose, pH 7.4, with synaptosomes obtained from 2 mg (original wet weight) of striatal tissue per reaction tube, and samples were incubated on ice for 2 hr. Samples were then filtered through Whatman GF/B filters (Brandel, Gaithersburg, Md.) soaked previously in 0.05% polyethylenimine. Filters were washed rapidly 3 times with 3 ml of ice-cold 0.32 M sucrose using a Brandel filtering manifold. […] Remaining resuspended P2 samples were assayed for protein concentrations according to the method of Lowry et al. (1951).

VMAT-2 [2] = molecular target: T2, VMAT-2 (Rattus norvegicus, UniProt Q01827); format: in vivo; parameters: purified striatal vesicles prepared from treated rats; from tissue; host or cells: striatum of male Sprague-Dawley rats (synaptic vesicles; P2, P3, S3 fractions); details: rats, MDMA 4 x 10 mg/kg s.c.
Experimental: Osmolarity was restored by addition of N-(2-hydroxyethyl)-piperazine-N′-2-ethanesulfonic acid (HEPES) and potassium tartrate 25 mM and 100 mM (final concentrations; pH 7.5 at 4° C.), respectively.

DAT [3] = molecular target: T1, DAT; assay: In vitro preincubation of striatal synaptosomes with MDMA: [3H]DA uptake and WIN35428 binding; format: biochemical; details: 30 min, 37° C.
Experimental: as §1

VMAT-2 [4] = molecular target: VMAT-2 (Mus musculus, UniProt Q8BRU6); assay: Vesicular [3H]dopamine uptake in striatal vesicles prepared from treated mice; format: in vivo; details: MDMA 4 x 10 mg/kg s.c.
Experimental: (A. E. Fleckenstein, et al., J. Pharmacol Exp Ther. (1997) 282:834-838). Briefly, fresh tissue was homogenized in ice-cold 0.32 M sucrose. The homogenate was centrifuged (800×g for 12 min; 4° C.), and the supernatant (S1) was carefully removed and centrifuged (22,000×g for 15 min; 4° C.) to obtain the synaptosomal-containing pellet (P2). The resulting P2 were resuspended and homogenized in ice-cold distilled deionized water. Osmolarity was restore by addition 25 mM HEPES and 100 mM potassium tartrate (final concentration; pH 7.5 at 4° C. respectively). […] The resultant S3 removed and MgSO4 added (final concentration of [1 mM] pH 7.5 at 4° C.) and centrifuged at 100,000×g for 45 min. The final P4 were resuspended at 50 mg/ml (original tissue wet weight).

[5] = molecular target: T3, plasmalemmal DA transporter (DAT) (Rattus norvegicus, UniProt P23977); details: MDMA-treated rats, multiple high-dose, Metzger et al., 1998, cited from earlier work
T3 construct: Uptake of [^3H]DA was determined in striatal synaptosomes; from tissue; host or cells: striatum of male Sprague-Dawley rats (synaptosomes, P2)

[6] = molecular target: T3, plasmalemmal DA transporter (DAT); assay: Plasmalemmal [3H]DA uptake in striatal synaptosomes prepared from treated rats; format: in vivo; details: MDMA 4 x 10 mg/kg s.c.
Experimental: Uptake of [^3H]DA was determined in striatal synaptosomes prepared according to the method described by Kokoshka et al. (1998). Briefly, fresh striatal tissue was homogenized in cold 0.32 M sucrose and centrifuged (800×g for 12 min; 4° C.). The supernatant (S1) was then centrifuged (22,000×g for 15 min; 4° C.), and the resulting pellet (P2) was resuspended in ice-cold modified Kreb's buffer (in mM: 126 NaCl, 4.8 KCl, 1.3 CaCl2, 16 sodium phosphate, 1.4 MgSO4, 11 dextrose, 1-ascorbic acid, pH 7.4). Assays were conducted in Kreb's buffer. Each assay tube contained synaptosomal tissue (i.e., resuspended P2 obtained from 1.5 mg of original wet weight striatal tissue) and 1 μM pargyline. Nonspecific values were determined in the presence of 100 μM cocaine. After preincubation of assay tubes for 10 min at 37° C., assays were initiated by the addition of [^3H]DA (0.5 nM final concentration). Samples were incubated at 37° C. for 3 min. Samples were then filtered through Whatman GF/B filters (Brandel, Gaithersburg, Md.) soaked previously in 0.05% polyethylenimine. Filters were washed rapidly 3 times with 3 ml of ice-cold 0.32 M sucrose using a Brandel filtering manifold. […] Remaining resuspended P2 samples were assayed for protein concentrations according to the method of Lowry et al. (1951). In MDMA preincubation experiments, samples were preincubated with 10 μM MDMA for 30 min at 37° C. After 30 min, resuspended P2 fractions were “washed” by centrifugation (22,000×g for 15 min; 4° C.). The resulting pellet (P3) was then resuspeded in ice-cold Kreb's buffer, and once again centrifuged (22,000×g for 15 min; 4° C.) to obtain a P4 pellet that was subsequently resuspended and assayed. [^3H]WIN35428 binding (0.5 nM final concentration) was conducted in phosphate-buffered 0.32 M sucrose, pH 7.4, with synaptosomes obtained from 2 mg (original wet weight) of striatal tissue per reaction tube, and samples were incubated on ice for 2 hr. Samples were then filtered through Whatman GF/B filters (Brandel, Gaithersburg, Md.) soaked previously in 0.05% polyethylenimine. […]

VMAT-2 [7] = molecular target: T2, VMAT-2; assay: [3H]DHTBZ binding in purified striatal vesicles prepared from treated rats; details: rats, MDMA 4 x 10 mg/kg s.c., both 1 and 24 h after treatment
Experimental: Synaptic vesicles were obtained from synaptosomes prepared from rat striatum as described above. Synaptosomes were resuspended and homogenized in cold distilled deionized water. Osmolarity was restored by addition of HEPES and potassium tartrate 245 and 100 mM (final concentrations; pH 7.5), respectively. Samples were centrifuged for 20 min at 20,000×g (4° C.) to remove lysed synaptosomal membranes. MgSO4 (1 mM, final concentration) was added to the supernatant, which was then centrifuged for 45 min at 100,000×g (4° C.). The resulting vesicular pellet was resuspended in wash buffer at a concentration of 50 mg/ml (original tissue weight). […] Binding of [^3H]DHTBZ was performed as described by Teng et al. (1998). Briefly, 200 μl of the synaptic vesicle preparation (˜6 μg of protein) was incubated in wash buffer in the presence of [^3H]DHTBZ (2 nM final concentration) for 10 min at 25° C. The reaction was terminated by addition of 1 ml of cold wash buffer and rapid filtration through Whatman GF/F filters soaked in 0.5% polyethylenimine. Filters were washed three times with ice-cold wash buffer. Nonspecific binding was determined by coincubation with 20 μM tetrabenazine. All protein concentrations were determined by a BioRad protein assay (Bio-Rad, Richmond, Calif.).
Binding of [^3H]DHTBZ was performed as described by Teng et al. (1998). Briefly, 200 μl (˜6 μg protein) of the synaptic vesicle preparation was incubated in wash buffer in the presence of [^3H]DHTBZ (2 nM final concentration except in kinetic analyses wherein 0.25-500 nM DHTBZ was employed) for 10 m in at 25° C. The reaction was terminated by addition of 1 ml cold wash buffer and rapid filtration through Whatman GF/F filters soaked in 0.5% polyethylenimine. Filters were washed three times with ice-cold wash buffer. Radioactivity trapped in filters was counted using a liquid scintillation counter. Nonspecific binding was determined by coincubation with 20 μM TBZ. All protein concentrations were determined by a Bio-Rad protein assay (Bio-Rad Inc.).
Binding of[^3H]DHTBZ was performed as described by Teng et al. (1998). Briefly, 200 μl (˜5 μg protein) of the synaptic vesicle preparation was incubated in wash buffer in the presence of [^3H]DHTBZ (2 nM final concentration except in kinetic analyses wherein 0.25-500 nM DHTBZ was employed) for 10 m in at 25° C. The reaction was terminated by addition of 1 ml cold wash buffer and rapid filtration through Whatman GF/F filters soaked in 0.5% polyethylenimine. Filters were washed three times with ice-cold wash buffer. Radioactivity trapped in filters was counted using a liquid scintillation counter. Nonspecific binding was determined by coincubation with 20 μM TBZ. All protein concentrations were determined by a Bio-Rad protein assay (Bio-Rad Inc.).

T3 sequence (P23977 whole entry): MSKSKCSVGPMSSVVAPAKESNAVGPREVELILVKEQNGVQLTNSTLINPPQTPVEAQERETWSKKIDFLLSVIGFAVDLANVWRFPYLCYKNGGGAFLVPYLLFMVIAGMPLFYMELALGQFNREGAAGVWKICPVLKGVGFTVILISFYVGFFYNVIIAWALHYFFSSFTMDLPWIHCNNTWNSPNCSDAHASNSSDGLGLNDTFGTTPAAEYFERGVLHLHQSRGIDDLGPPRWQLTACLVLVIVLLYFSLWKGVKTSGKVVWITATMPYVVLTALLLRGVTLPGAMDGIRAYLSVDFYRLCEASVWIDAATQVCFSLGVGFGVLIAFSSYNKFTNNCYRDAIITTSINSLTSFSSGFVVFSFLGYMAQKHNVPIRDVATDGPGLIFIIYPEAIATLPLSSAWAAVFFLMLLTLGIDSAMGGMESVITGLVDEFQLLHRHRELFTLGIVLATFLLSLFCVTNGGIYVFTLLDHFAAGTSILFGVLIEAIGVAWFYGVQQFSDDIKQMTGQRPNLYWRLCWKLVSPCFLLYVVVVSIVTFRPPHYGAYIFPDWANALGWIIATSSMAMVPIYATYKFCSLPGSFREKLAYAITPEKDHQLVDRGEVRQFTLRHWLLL
T1 sequence (P23977 whole entry): as above
T2 sequence (Q01827 whole entry): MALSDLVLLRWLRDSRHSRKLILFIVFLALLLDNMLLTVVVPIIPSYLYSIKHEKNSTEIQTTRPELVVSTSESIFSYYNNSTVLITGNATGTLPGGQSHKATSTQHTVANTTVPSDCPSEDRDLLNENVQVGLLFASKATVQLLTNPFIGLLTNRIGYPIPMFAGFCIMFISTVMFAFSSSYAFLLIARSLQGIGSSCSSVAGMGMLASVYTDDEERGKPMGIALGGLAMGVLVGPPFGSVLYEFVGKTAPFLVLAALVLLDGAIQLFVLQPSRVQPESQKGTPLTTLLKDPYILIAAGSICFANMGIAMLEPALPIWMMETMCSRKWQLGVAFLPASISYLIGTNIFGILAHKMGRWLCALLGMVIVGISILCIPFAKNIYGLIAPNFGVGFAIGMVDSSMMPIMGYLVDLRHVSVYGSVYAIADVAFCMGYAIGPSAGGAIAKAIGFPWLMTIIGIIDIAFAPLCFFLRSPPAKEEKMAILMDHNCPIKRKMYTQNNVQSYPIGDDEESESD
Chain of VMAT-2 (Mus musculus, UniProt Q8BRU6) (Q8BRU6 whole entry): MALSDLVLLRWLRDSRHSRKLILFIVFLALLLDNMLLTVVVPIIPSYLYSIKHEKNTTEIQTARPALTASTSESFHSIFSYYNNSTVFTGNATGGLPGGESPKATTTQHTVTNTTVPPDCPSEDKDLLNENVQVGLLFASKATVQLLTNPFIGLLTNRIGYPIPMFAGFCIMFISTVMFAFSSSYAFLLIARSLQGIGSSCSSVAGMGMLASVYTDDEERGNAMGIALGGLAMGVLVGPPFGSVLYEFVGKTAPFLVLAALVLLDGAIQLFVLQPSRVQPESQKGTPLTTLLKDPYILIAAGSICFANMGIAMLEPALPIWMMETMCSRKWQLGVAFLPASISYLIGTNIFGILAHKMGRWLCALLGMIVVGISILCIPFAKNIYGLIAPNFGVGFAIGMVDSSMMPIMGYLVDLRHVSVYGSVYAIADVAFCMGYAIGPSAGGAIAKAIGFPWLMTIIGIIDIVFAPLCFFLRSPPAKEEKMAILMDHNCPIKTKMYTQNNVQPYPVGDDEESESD

For `CNC(C)Cc1ccc2c(c1)OCO2` (stereo not drawn) [MDMA, methylenedioxymethamphetamine], the “WIN35428 binding in the body temperature experiment” value (DAT [1]; 6 or 24° C. ambient, 1 h (data not shown)) was “not affected”, the “decrease in WIN35428 binding” value (DAT [1]; 1 h after treatment) was 10% and 18% and the “deficit in WIN35428 binding 24 h after drug treatment” value (DAT [1]; 24 h) was “persisted”. For the same compound, the “deficit in vesicular DA uptake” value (VMAT-2 [2]; 1 h) was 25-30%, the “vesicular DA uptake 1 h after multiple MDMA administrations” value (VMAT-2 [2]; 1 h) was “rapidly decreased” and the “deficit in vesicular DA uptake 24 h after drug treatment” value (VMAT-2 [2]; 24 h) was “partially recovered”. The “WIN35428 binding after incubation of synaptosomes with MDMA” value (DAT [3]; MDMA 10 μM) was “no effect”, the “decrease in DA uptake in vitro” value (DAT [3]; striatal synaptosomes incubated with MDMA 10 μM) was 35-55% and the “vesicular dopamine uptake after multiple MDMA administrations” value (VMAT-2 [4]; 1 h) was “rapidly decreased”. For the same compound, the “decrease in vesicular dopamine uptake 24 h later” value (VMAT-2 [4]; 24 h) was “largely reversed”, the “Vmax of plasmalemmal DA uptake” value [5] was 1410 fmol/μg/5 min and the Km ([5]; read-out: transporter Km of plasmalemmal DA uptake) was 0.0989 µM. For the same compound, the “magnitude of the decrease in plasmalemmal DA uptake” value ([6]; 2-h intervals, 1 h) was 35-55%, the “deficit in plasmalemmal DA uptake 24 h after drug treatment” value ([6]; 24 h) was “reversed” and the “binding of the VMAT-2 ligand [3H]DHTBZ” value (VMAT-2 [7]) was “reduced”.
